Consider 16 compounds from publication PMC11858653, “Design, Synthesis and Bioactive Evaluation of Topo I/c-MYC Dual Inhibitors to Inhibit Oral Cancer via Regulating the PI3K/AKT/NF-κB Signaling Pathway” (Molecules, 2025).

Assay [1] concerns ACHN. The experiment in a line: MTT antiproliferative assay, ACHN. It is filed as cell-based, human. Particulars: 48 h, mean ± SD. Here is the method: (§1) Having evaluated their Topo I inhibitory activity, the antiproliferative activity of the target compounds against some common human cancer cell lines (NCI-H460, A549, ACHN, Cal27 and MGC-803) and one normal cell line (SV-HUC-1) was tested via an MTT assay. TPT, the first Topo I inhibitor approved in clinics, and cisplatin (CDDP), a commonly selected anticancer drug for treating head and neck malignancies, were used as the positive controls.
(§2) Human oral cancer Cal27 cells were seeded in 96-well plates and incubated overnight in 180 μL of medium containing 10% Fetal Bovine Serum (Gibco, San Francisco, CA, USA). […] Then, 10 μL of 5 mg/mL MTT solution was added to each well and incubated at 37 °C for 4 h. After 4 h of incubation at 37 °C, the MTT-containing medium was removed and DMSO was added to each well and the absorbance at 570 nm and 630 nm was measured using a microplate reader (CYTATION 3, Burton, Westwood, NJ, USA). Survival/% = (mean OD of experimental group/mean OD of control group) × 100%. Each test was repeated at least three times.

For assay [2], the system named is NCI-H460. Description: MTT antiproliferative assay, NCI-H460. Format: cell-based, human. Particulars: mean ± SD. Here is the method: as §1, §2
The subject of assay [3] is SV-HUC-1. Description: MTT assay, normal cell line SV-HUC-1. It is filed as cell-based. To be noted: mean ± SD. The method, then: as §1, §2
The subject of assay [4] is MGC-803. Description: MTT antiproliferative assay, MGC-803. Format: cell-based, human. Particulars: mean ± SD. The method, then: as §1, §2
The subject of assay [5] is Cal27. Description: MTT antiproliferative assay, Cal27. Format: cell-based, human. Particulars: mean ± SD. Here is the method:
as §1, §2

For assay [6], the system named is A549. The experiment in a line: MTT antiproliferative assay, A549. Particulars: mean ± SD. It is filed as cell-based, human. The method, then: as §1, §2

A value given as a limit tells only on which side of the number the result lay.

Consider `CN(C)CCNc1nc2c(c3ccccc13)S(=O)(=O)c1ncccc1-2` [7aa, 5-((2-(Dimethylamino)ethyl)amino)pyrido[3′,2′:4,5] thieno[3,2-c]isoquinoline 11,11-dioxide], for which the IC50 in assay [1] (Homo sapiens, ACHN) is 20.5 ± 4.82 µM; in assay [2] (Homo sapiens, NCI-H460, 48 h) it was 59 ± 3.81 µM; in assay [3] (SV-HUC1, 48 h), 20.8 ± 3.83 µM; in assay [4] (Homo sapiens, MGC-803, 48 h), 21.6 ± 0.64 µM; in assay [5] (Homo sapiens, CAL-27, 48 h), 14.4 ± 4.75 µM; in assay [6] (Homo sapiens, A549, 48 h) it was > 100 µM.
For `CCN(CC)CCNc1nc2c(c3ccccc13)S(=O)(=O)c1ncccc1-2` [7ab, 5-((2-(Diethylamino)ethyl)amino)pyrido[3′,2′:4,5] thieno[3,2-c]isoquinoline 11,11-dioxide], the IC50 was > 100 µM in assay [1] (Homo sapiens, ACHN); 59.7 ± 9.65 µM in assay [2] (Homo sapiens, NCI-H460, 48 h); 21.6 ± 3.19 µM in assay [3] (SV-HUC1, 48 h); 47 ± 2.43 µM in assay [4] (Homo sapiens, MGC-803, 48 h); 23.8 ± 1.08 µM in assay [5] (Homo sapiens, CAL-27, 48 h); 42.6 ± 1.89 µM in assay [6] (Homo sapiens, A549, 48 h).
Regarding `O=S1(=O)c2ncccc2-c2nc(NCCN3CCOCC3)c3ccccc3c21` [7ad, 5-((2-Morpholinoethyl)amino)pyrido[3′,2′:4,5]thieno[3,2-c]isoquino-line 11,11-dioxide], the IC50 in assay [1] (Homo sapiens, ACHN) was > 100 µM; in assay [2] (Homo sapiens, NCI-H460, 48 h), > 100 µM; in assay [3] (SV-HUC1, 48 h), > 100 µM; in assay [4] (Homo sapiens, MGC-803, 48 h), > 100 µM; in assay [5] (Homo sapiens, CAL-27, 48 h), > 100 µM; in assay [6] (Homo sapiens, A549, 48 h), > 100 µM.
Consider `O=S1(=O)c2ncccc2-c2nc(NCCN3CCCCC3)c3ccccc3c21` [7ae, 5-((2-(Piperidin-1-yl)ethyl)amino)pyrido[3′,2′:4,5] thieno[3,2-c]isoquinoline 11,11-dioxide], for which the IC50 in assay [1] (Homo sapiens, ACHN) was 61.7 ± 4.9 µM; in assay [2] (Homo sapiens, NCI-H460, 48 h), 16.9 ± 0.78 µM; in assay [3] (SV-HUC1, 48 h), 15.2 ± 2.43 µM; in assay [4] (Homo sapiens, MGC-803, 48 h), 14.2 ± 2.46 µM; in assay [5] (Homo sapiens, CAL-27, 48 h), 7.96 ± 2.24 µM; in assay [6] (Homo sapiens, A549, 48 h), > 100 µM.
With `O=S1(=O)c2ncccc2-c2nc(NCCCN3CCOCC3)c3ccccc3c21` [7ai, 5-((3-Morpholinopropyl)amino)pyrido[3′,2′:4,5] thieno[3,2-c]isoquinoline 11,11-dioxide], the IC50 is > 100 µM in assay [1] (Homo sapiens, ACHN); > 100 µM in assay [2] (Homo sapiens, NCI-H460, 48 h); > 100 µM in assay [3] (SV-HUC1, 48 h); > 100 µM in assay [4] (Homo sapiens, MGC-803, 48 h); > 100 µM in assay [5] (Homo sapiens, CAL-27, 48 h); > 100 µM in assay [6] (Homo sapiens, A549, 48 h).
On to `O=S1(=O)c2ncccc2-c2nc(NCCCn3ccnc3)c3ccccc3c21` [7aj, 5-((3-(1H-Imidazol-1-yl)propyl)amino)pyrido[3′,2′:4,5]thieno[3,2-c]isoquinoline 11,11-dioxide], for which the half-maximal inhibitory concentration (IC50) in assay [1] (Homo sapiens, ACHN) is > 100 µM; in assay [2] (Homo sapiens, NCI-H460, 48 h) it was > 100 µM; in assay [3] (SV-HUC1, 48 h), > 100 µM; in assay [4] (Homo sapiens, MGC-803, 48 h), > 100 µM; in assay [5] (Homo sapiens, CAL-27, 48 h) it was > 100 µM; in assay [6] (Homo sapiens, A549, 48 h), > 100 µM.
In the case of `O=S1(=O)c2ncccc2-c2nc(N3CCCC3)c3ccccc3c21` [7al, 5-(Pyrrolidin-1-yl)pyrido[3′,2′:4,5]thieno[3,2-c]isoquinoline 11,11-dioxide], the IC50 in assay [1] (Homo sapiens, ACHN) is > 100 µM; in assay [2] (Homo sapiens, NCI-H460, 48 h), > 100 µM; in assay [3] (SV-HUC1, 48 h), > 100 µM; in assay [4] (Homo sapiens, MGC-803, 48 h), > 100 µM; in assay [5] (Homo sapiens, CAL-27, 48 h), > 100 µM; in assay [6] (Homo sapiens, A549, 48 h), > 100 µM.
On to `Cc1cc(C)c2c(n1)S(=O)(=O)c1c-2nc(NCCCn2ccnc2)c2ccccc12` [7bj, 5-((3-(1H-Imidazol-1-yl)propyl)amino)-7,9-dimethylpyrido[3′,2′:4,5]thieno[3,2-c]isoquinoline 11,11-dioxide], for which the 50% inhibitory concentration (IC50) in assay [1] (Homo sapiens, ACHN) was > 100 µM; in assay [2] (Homo sapiens, NCI-H460, 48 h), > 100 µM; in assay [3] (SV-HUC1, 48 h), > 100 µM; in assay [4] (Homo sapiens, MGC-803, 48 h) it was > 100 µM; in assay [5] (Homo sapiens, CAL-27, 48 h) it was > 100 µM; in assay [6] (Homo sapiens, A549, 48 h), > 100 µM.
As for `Cc1cc(-c2ccccc2)nc2c1-c1nc(NCCN(C)C)c3ccccc3c1S2(=O)=O` [7ca, 5-((2-(Dimethylamino)ethyl)amino)-7-methyl-9-phenylpyrido[3′,2′:4,5]-thieno[3,2-c]isoquinoline 11,11-dioxide], the IC50 in assay [1] was > 100 µM; in assay [2] (48 h) it was > 100 µM; in assay [3] (48 h), > 100 µM; in assay [4] (48 h) it was 53.1 ± 3.78 µM; in assay [5] (48 h) it was > 100 µM; in assay [6] (48 h), > 100 µM.
On to `CCN(CC)CCNc1nc2c(c3ccccc13)S(=O)(=O)c1nc(-c3ccccc3)cc(C)c1-2` [7cb, 5-((2-(Diethylamino)ethyl)amino)-7-methyl-9-phenylpyrido[3′,2′:4,5]thieno[3,2-c]isoquinoline 11,11-dioxide], for which the concentration for half-maximal inhibition (IC50) is > 100 µM in assay [1]; > 100 µM in assay [2] (48 h); > 100 µM in assay [3] (48 h); > 100 µM in assay [4] (48 h); 20.3 ± 2.34 µM in assay [5] (48 h); 37.39 ± 0.21 µM in assay [6] (48 h).
As to `Cc1cc(-c2ccccc2)nc2c1-c1nc(NCCN3CCCC3)c3ccccc3c1S2(=O)=O` [7cc, 7-Methyl-9-phenyl-5-((2-(pyrrolidin-1-yl)ethyl)amino)pyrido[3′,2′:4,5]thieno[3,2-c]isoquinoline 11,11-dioxide], the concentration for half-maximal inhibition (IC50) in assay [1], in assay [2] (48 h), in assay [3] (48 h), in assay [4] (48 h), in assay [5] (48 h) and in assay [6] (48 h) was > 100 µM in each case.
Take `Cc1cc(-c2ccccc2)nc2c1-c1nc(NCCN3CCOCC3)c3ccccc3c1S2(=O)=O` [7cd, 7-Methyl-5-((2-morpholinoethyl)amino)-9-phenylpyrido[3′,2′:4,5]thieno[3,2-c]isoquinoline 11,11-dioxide]: the IC50 was > 100 µM in assay [1]; > 100 µM in assay [2] (48 h); > 100 µM in assay [3] (48 h); > 100 µM in assay [4] (48 h); > 100 µM in assay [5] (48 h); 78.9 ± 2.86 µM in assay [6] (48 h).
With `Cc1cc(-c2ccccc2)nc2c1-c1nc(NCCN3CCCCC3)c3ccccc3c1S2(=O)=O` [7ce, 7-Methyl-9-phenyl-5-((2-(piperidin-1-yl)ethyl)-amino)pyrido[3′,2′:4,5]thieno[3,2-c]isoquinoline 11,11-dioxide], the half-maximal inhibitory concentration (IC50) in assay [1] is > 100 µM; in assay [2] (48 h), 93 ± 8.03 µM; in assay [3] (48 h), > 100 µM; in assay [4] (48 h), 94 ± 2.15 µM; in assay [5] (48 h) it was 56.8 ± 2.59 µM; in assay [6] (48 h), 86.5 ± 3.15 µM.
On to `Cc1cc(-c2ccccc2)nc2c1-c1nc(NCCCN3CCOCC3)c3ccccc3c1S2(=O)=O` [7ci, 7-Methyl-5-((3-morpholinopropyl)amino)-9-phenylpyrido[3′,2′:4,5]thieno[3,2-c]isoquinoline 11,11-dioxide], for which the IC50 in assay [1], in assay [2] (48 h), in assay [3] (48 h), in assay [4] (48 h), in assay [5] (48 h) and in assay [6] (48 h) was > 100 µM each time.
For `Cc1cc(-c2ccccc2)nc2c1-c1nc(NCCCn3ccnc3)c3ccccc3c1S2(=O)=O` [7cj, 5-((3-(1H-imidazol-1-yl)propyl)amino)-7-methyl-9-phenylpyrido[3′,2′:4,5]thieno[3,2-c]isoquinoline 11,11-dioxide], the IC50 in assay [1], in assay [2] (48 h), in assay [3] (48 h), in assay [4] (48 h), in assay [5] (48 h) and in assay [6] (48 h) was > 100 µM each time.
Consider `CC[C@@]1(O)C(=O)OCc2c1cc1n(c2=O)Cc2cc3c(CN(C)C)c(O)ccc3nc2-1` [TPT, topotecan, reference compound], for which the 50% inhibitory concentration (IC50) in assay [1] (Homo sapiens, ACHN) was 4.32 ± 0.63 µM; in assay [2] (Homo sapiens, NCI-H460, 48 h) it was 21.4 ± 1.33 µM; in assay [3] (SV-HUC1, 48 h) it was 30.8 ± 1.58 µM; in assay [4] (Homo sapiens, MGC-803, 48 h), 6.36 ± 1.09 µM; in assay [5] (Homo sapiens, CAL-27, 48 h) it was 2.33 ± 0.12 µM; in assay [6] (Homo sapiens, A549, 48 h), 3.84 ± 0.56 µM.
